Source: patent US20170087158A1, “JANUS KINASE INHIBITORS FOR TREATMENT OF DRY EYE AND OTHER EYE RELATED DISEASES” (Incyte Corporation, priority 2008, published 2017)

Tests used:
[1] = tested on: myeloid dendritic cells (DCs); conditions: CD40-induced maturation of myeloid DCs; Saemann et al. 2003; cited from earlier work
[2] = tested on: NOD mouse model of autoimmune type 1 diabetes; conditions: Cetkovic-Cvrlje et al. 2003; cited from earlier work

Experimental for JAK: Compounds herein are tested for inhibitory activity of JAK targets according to the following in vitro assay described in Park et al., Analytical Biochemistry 1999, 269, 94-104. The catalytic domains of human JAK1 (a.a. 837-1142), Jak2 (a.a. 828-1132) and Jak3 (a.a. 781-1124) with an N-terminal His tag are expressed using baculovirus in insect cells and purified. The catalytic activity of JAK1, JAK2 or JAK3 is assayed by measuring the phosphorylation of a biotinylated peptide. The phosphorylated peptide is detected by homogenous time resolved fluorescence (HTRF). IC50s of compounds is measured for each kinase in the reactions that contain the enzyme, ATP and 500 nM peptide in 50 mM Tris (pH 7.8) buffer with 100 mM NaCl, 5 mM DTT, and 0.1 mg/mL (0.01%) BSA. The ATP concentration in the reactions is 90 μM for Jak1, 30 μM for Jak2 and 3 μM for Jak3. Reactions are carried out at room temperature for 1 hr and then stopped with 20 μL 45 mM EDTA, 300 nM SA-APC, 6 nM Eu-Py20 in assay buffer (Perkin Elmer, Boston, Mass.). Binding to the Europium labeled antibody takes place for 40 minutes and HTRF signal is measured on a Fusion plate reader (Perkin Elmer, Boston, Mass.).

SMILES: COc1cc2ncnc(Nc3ccc(O)c(Br)c3)c2cc1OC [WHI-P-154]
- effect on CD40-induced JAK3 activity, costimulatory molecule expression, IL-12 production and allogeneic stimulatory capacity [1]: prevented these effects

SMILES: N#CC[C@H](C1CCCC1)n1cc(-c2ncnc3[nH]ccc23)cn1 (mixture of isomers) [Example 67, (3R)- and (3S)-3-Cyclopentyl-3-[4-(7H-pyrrolo[2,3-d]pyrimidin-4-yl)-1H-pyrazol-1-yl]propanenitrile]
- JAK inhibitor activity (JAK; qualitative, b1163: IC50 of 10 μM or less for any JAK target (JAK1, JAK2, JAK3) is considered active): active JAK inhibitors

SMILES: N#CCC(C1CCCC1)n1cc(-c2ncnc3[nH]ccc23)cn1 (single isomer, unassigned; peak 3) [Example 67 second peak, 3-Cyclopentyl-3-[4-(7H-pyrrolo[2,3-d]pyrimidin-4-yl)-1H-pyrazol-1-yl]propanenitrile]
- JAK inhibitor activity relative to its enantiomer (JAK; final products from the enantiomers separated by preparative-HPLC (OD-H)): more active than its enantiomer

SMILES: COc1cc2ncnc(Nc3ccc(O)cc3)c2cc1OC [JANEX-1]
- immunomodulatory activity [2]: potent immunomodulatory activity
- onset of diabetes [2]: delayed the onset of diabetes
